Assay results: ChEMBL document CHEMBL1201862, “PubChem BioAssay data set” (2004)
Activity calls are given as the source filed them.

How the values were obtained:
H9c2 = experiment: cells; type: functional, cell-based; conditions: Rattus norvegicus, H9c2, Myocardium;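 note: confirmatory concentration-response retest of ultra-high-throughput screening hits for modulation of myocardial damage; cell death induced by hydrogen peroxide oxidative stress; compound pretreatment for 60 min then peroxide exposure for 2 h; potency is for protecting the cells against peroxide damage rather than for killing them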
[1] = viability of HCT116 lacking mutant beta-catenin – cell-based, human colon tumor, dose response (AID 1045); type: functional;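 note: HCT116 colon tumor cells with beta catenin knocked out; cells exposed to compound for 60 hours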
[2] = viability of PTEN-deleted HCT116 cells – cell-based, HCT116 PTEN knockout, dose response (AID 1047); type: functional;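 note: HCT116 colon tumor cells with PTEN knocked out; cells exposed to compound for 60 hours before readout; potency for loss of cell viability measured by luminescence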
Vero = experiment: cells; type: functional; conditions: Chlorocebus sabaeus
Paired box protein Pax-8 = Paired box protein Pax-8 (Homo sapiens, UniProt Q06710); experiment: PAX8 transcriptional activity inhibition in RMG-I – RMG-I cells, luciferase, cherry-pick, dose response (AID 687027); type: functional, cell-based;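 note: luciferase reporter driven by Pax8 target thyroperoxidase promoter measured by SteadyGlo luminescence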
Chain of Paired box protein Pax-8 (Q06710 whole entry): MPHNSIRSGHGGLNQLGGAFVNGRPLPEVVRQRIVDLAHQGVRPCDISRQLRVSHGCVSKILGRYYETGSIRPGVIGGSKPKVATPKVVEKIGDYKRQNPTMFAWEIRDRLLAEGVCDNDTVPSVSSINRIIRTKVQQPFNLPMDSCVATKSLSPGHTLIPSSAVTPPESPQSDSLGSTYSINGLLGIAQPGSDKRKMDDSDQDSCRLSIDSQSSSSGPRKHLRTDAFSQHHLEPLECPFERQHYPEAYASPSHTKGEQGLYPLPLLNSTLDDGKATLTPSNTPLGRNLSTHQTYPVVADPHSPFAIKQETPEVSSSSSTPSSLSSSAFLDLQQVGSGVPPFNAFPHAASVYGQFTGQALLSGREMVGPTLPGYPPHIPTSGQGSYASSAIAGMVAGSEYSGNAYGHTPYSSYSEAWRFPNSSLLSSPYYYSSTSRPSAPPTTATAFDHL

[3] = Luminescence Cell-Based Dose Retest to Confirm Inhibitors of Cancer Stem Cells. [Related pubchem assays (depositor defined):AID2717, AID2721]; type: functional; conditions: Homo sapiens
[4] = HEK-293T viability loss after treatment – luminescence, T-cell screen hits, cytotoxicity control for TCR NF-kB inhibitor project, dose response (AID 489026); type: functional, cell-based;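 note: cells exposed to compound about 14 hours before the viability readout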
[5] = P. falciparum Dd2 growth inhibitors, dose response, SYBR Green, cherry-picked samples (AID 1159567); type: functional, cell-based
cells [6] = type: functional, cell-based
[7] = target: T1, Polyadenylate-binding protein 1 (Homo sapiens, UniProt P11940); experiment: MLLE binding blockers, Cy5 peptide tracer – biochemical, fluorescence polarization, Cy5-PAM2 peptide, secondary, miRNA deadenylation inhibitor project, dose response (AID 602260); type: functional; conditions: read-out: IC50_Mean
T1 sequence (P11940 whole entry, the tested form may be a part): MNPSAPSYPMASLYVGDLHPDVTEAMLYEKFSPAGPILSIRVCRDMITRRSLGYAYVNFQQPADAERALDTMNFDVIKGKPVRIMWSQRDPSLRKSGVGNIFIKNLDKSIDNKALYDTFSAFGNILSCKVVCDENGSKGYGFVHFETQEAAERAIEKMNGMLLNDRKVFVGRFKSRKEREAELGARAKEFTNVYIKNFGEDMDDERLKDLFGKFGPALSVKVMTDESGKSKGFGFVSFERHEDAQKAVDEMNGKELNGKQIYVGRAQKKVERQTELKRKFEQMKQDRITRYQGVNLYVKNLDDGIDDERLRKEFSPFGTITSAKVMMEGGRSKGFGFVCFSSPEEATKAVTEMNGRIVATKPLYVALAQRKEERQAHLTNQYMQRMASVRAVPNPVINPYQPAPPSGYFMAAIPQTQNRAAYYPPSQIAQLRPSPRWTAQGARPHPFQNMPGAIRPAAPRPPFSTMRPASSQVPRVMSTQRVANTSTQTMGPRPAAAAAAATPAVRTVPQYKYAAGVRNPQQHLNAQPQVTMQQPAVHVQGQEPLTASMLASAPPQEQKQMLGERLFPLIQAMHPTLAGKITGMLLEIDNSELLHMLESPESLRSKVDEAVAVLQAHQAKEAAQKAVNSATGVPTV

[8] = target: T1, Polyadenylate-binding protein 1; experiment: MLLE domain peptide-binding blockers, IC50 – biochemical, fluorescence polarization, FITC-PAM2 peptide, dose response (AID 602259); type: functional; conditions: read-out: IC50_Mean
cells [9] = type: functional, cell-based; remark: listed apart in the source
[10] = loss of viability in HepG2 cells – cell-based, CellTiter-Glo, cherry-picked, cytotoxicity control for Shn3 inhibitor project, dose response (AID 624134); type: functional
[11] = reduction of Shn3 3'UTR-driven luciferase in osteoblasts – cell-based, Clone20 osteoblasts, firefly luciferase, cherry-picked, dose response (AID 624132); type: functional;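 note: firefly luciferase luminescence from reporter carrying the Shn3 3'UTR in osteoblasts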
INS1 = experiment: INS-1E survival protection against cytokine death – cell-based, luminescence, retest, dose response (AID 449756); type: functional; conditions: Rattus norvegicus;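 note: cell death triggered by IL-1 beta plus TNF-alpha plus IFN-gamma mixture; protective hits raise ATP signal compared with cytokine alone wells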
[12] = target: Induced myeloid leukemia cell differentiation protein Mcl-1 (Homo sapiens, UniProt Q07820); type: functional
Chain of Induced myeloid leukemia cell differentiation protein Mcl-1 (Q07820 whole entry): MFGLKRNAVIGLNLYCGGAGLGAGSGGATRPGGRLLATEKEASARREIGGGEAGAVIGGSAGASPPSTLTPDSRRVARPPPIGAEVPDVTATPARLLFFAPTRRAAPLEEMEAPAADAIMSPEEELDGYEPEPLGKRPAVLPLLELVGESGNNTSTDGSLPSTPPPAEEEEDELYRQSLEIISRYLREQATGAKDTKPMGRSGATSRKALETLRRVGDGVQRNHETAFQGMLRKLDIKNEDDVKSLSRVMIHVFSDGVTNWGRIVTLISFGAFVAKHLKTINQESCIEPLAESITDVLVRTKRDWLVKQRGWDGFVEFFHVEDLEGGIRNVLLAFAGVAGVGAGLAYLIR

Genome polyprotein = Genome polyprotein (dengue virus type 2, UniProt P29990); experiment: flavivirus cap methylation enzyme inhibition – biochemical, confirmation dose response, primary screen (AID 588689); type: functional
Chain of Genome polyprotein (P29990 2492-3391 limits assumed): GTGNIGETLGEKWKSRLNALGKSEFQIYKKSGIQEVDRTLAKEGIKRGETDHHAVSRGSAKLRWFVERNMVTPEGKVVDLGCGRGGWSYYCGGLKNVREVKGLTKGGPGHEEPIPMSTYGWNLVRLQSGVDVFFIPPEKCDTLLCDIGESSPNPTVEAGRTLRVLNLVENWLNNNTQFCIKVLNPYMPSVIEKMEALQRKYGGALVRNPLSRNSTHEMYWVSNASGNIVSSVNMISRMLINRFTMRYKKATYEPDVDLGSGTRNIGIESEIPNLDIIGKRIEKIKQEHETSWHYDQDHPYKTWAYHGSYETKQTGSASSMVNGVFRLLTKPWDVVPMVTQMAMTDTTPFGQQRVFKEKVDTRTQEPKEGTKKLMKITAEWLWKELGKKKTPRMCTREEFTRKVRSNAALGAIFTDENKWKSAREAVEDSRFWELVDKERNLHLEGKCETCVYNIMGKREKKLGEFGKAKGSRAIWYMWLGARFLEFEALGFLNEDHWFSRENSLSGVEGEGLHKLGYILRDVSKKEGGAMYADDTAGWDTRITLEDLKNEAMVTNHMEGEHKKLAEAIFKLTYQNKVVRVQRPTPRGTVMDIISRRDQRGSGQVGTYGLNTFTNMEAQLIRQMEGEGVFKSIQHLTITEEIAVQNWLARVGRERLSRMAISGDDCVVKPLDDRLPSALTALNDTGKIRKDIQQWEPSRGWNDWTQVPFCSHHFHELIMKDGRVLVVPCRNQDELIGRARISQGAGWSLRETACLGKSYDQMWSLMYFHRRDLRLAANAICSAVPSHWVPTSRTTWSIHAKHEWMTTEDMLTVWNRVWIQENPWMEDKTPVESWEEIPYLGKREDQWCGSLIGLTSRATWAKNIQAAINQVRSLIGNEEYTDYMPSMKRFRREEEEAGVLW

With COc1cccc(-c2ccc(SCC(=O)N3CCN(c4ccccc4)CC3)nn2)c1 the IC50 (H9c2) was 16.1 µM (active).

For COc1cc(/C=N/NC(=O)c2cccnc2)ccc1OS(=O)(=O)c1ccc(F)cc1, the IC50 (H9c2) was 7.92 µM (active).

In the case of Cc1nc(-n2ncc(C#N)c2N)c2c3c(sc2n1)CCC3, the EC50 [1] is reported as 32 µM (active) and the EC50 [2] is reported as 24.8 µM (active).

In the case of C[C@]12CC[C@H]3[C@@H](CC[C@]4(O)C[C@@H](O)CC[C@]34C=O)[C@@]1(O)CC[C@@H]2C1=CC(=O)OC1 [STROPHANTHIDIN], the CC50 (Vero) is reported as 1.22 µM (active), the AC50 (Paired box protein Pax-8) is reported as 2.22 µM (active) and the AC50 [3] is reported as 0.582 µM (active). The IC50 [4] was > 80 µM (inactive).

For CCC(=O)N1CC2(C1)CN(Cc1ccc(Cl)cc1)[C@@H](CO)c1[nH]c3cc(OC)ccc3c12, the AC50 [5] was 7.24 µM (active).

With COC(=O)c1ccc(/C=C/C(=O)c2ccc(OC)c(OC)c2)cc1 the EC50 [1] was 7.25 µM (active) and the EC50 [2] was 8.4 µM (active).

For CCc1nc(SCC(=O)c2ccccc2)c2ccccc2n1, the EC50 (cells [6]) was > 350 µM (not active), the IC50 [7] was > 66 µM (inactive) and the IC50 [8] was > 66 µM (inactive). For the same molecule, the EC50 (cells [9]) was > 350 µM (not active).

In the case of Cc1ccc(S(=O)(=O)NCc2ccncc2)cc1C, the AC50 [10] is reported as 2.43 µM (active), the AC50 [11] is reported as 0.585 µM (active) and the IC50 [4] is reported as > 80 µM (inactive). The AC50 (INS1) was 3.06 µM (active).

In the case of CCOC(=O)N1CCN(C(=O)C2CCCN(Cc3nc(-c4ccc(Cl)cc4)oc3C)C2)CC1 (configuration not stated), the IC50 [4] is reported as > 80 µM (inactive).

In the case of O=c1c2c3nc4ccccc4nc3n(Cc3ccccc3)c2ncn1Cc1ccco1, the IC50 [12] is reported as 6.14 µM (not active).

For COc1cc(-c2cc(C(=O)Nc3c(Cl)cc(Cl)cc3Cl)c3ccccc3n2)cc(OC)c1OC, the EC50 [1] was 44.6 µM (active) and the EC50 [2] was 26 µM (active).

With CO[C@H]1CN(C)C(=O)c2cc(NC(=O)C3CC3)ccc2OC[C@H](C)N(Cc2cccc(F)c2)C[C@H]1C the AC50 [5] was 6.05 µM (active).

With COc1cc(/C=C(/NC(C)=O)C(=O)O)cc(Cl)c1OCc1ccc(Br)cc1 the IC50 [12] was 3.47 µM (not active).

With O=C(CCc1nc(O)c2ccccc2n1)Nc1ccc(F)cc1 the IC50 (H9c2) was > 79 µM (inactive).

For O=C(O)CN1C(=O)/C(=C2\SC(=S)N(C(Cc3ccccc3)C(=O)O)C2=O)c2ccccc21 (configuration not stated), the IC50 (Genome polyprotein) was 42 µM (active), the IC50 [7] was > 66 µM (inactive) and the IC50 [8] was > 66 µM (inactive).

For N#C[C@H]1[C@H](c2ccc(C#CC3CCCCC3)cc2)[C@@H](CO)N1S(=O)(=O)c1ccccc1, the AC50 [5] was 3.24 µM (active).

With C=CCC1(C#N)C(=S)N=C2CC(C)(C)CC(O)=C2C1c1ccc(Br)cc1 (configuration not stated) the EC50 [1] was 14.9 µM (active) and the EC50 [2] was 14.6 µM (active).
